Experimental data: patent US20030022876A1, “Sustained-release analgesic compounds” (priority 2001, published 2003)

How the values were obtained:
[1] = Stability (half-life) in human plasma at 37° C., HPLC analysis; assay type: in vitro ADME; details: stock solution diluted 10 fold
Description: (§1) This stock solution was diluted 10 fold in either 0.1 M phosphate buffer, pH 7.4, or human plasma, and the working solution was placed in a water bath at 37° C. Samples had been taken every hour for the plasma and every couple of hours for the buffer.

[2] = Stability (half-life) in 0.1 M phosphate buffer, pH 7.4, at 37° C., HPLC analysis; assay type: physicochemical; details: pH 7.4, 37° C.
Description: as §1

Row | Compound | half-life at 0.1 mg/ml [1] [h] | half-life at 0.1 mg/ml [2] [h]
1 | CN1CC[C@]23c4c5ccc(OC(=O)Cc6ccccc6Nc6c(Cl)cccc6Cl)c4O[C@H]2[C@@H](O)C=C[C@H]3[C@H]1C5 [Inventive compound (10)] | 0.35 ± 0.0167 | 2.5 ± 0.5
2 | COc1ccc2cc(C(C)C(=O)OCOC(=O)Oc3ccc4c5c3O[C@H]3[C@@H](O)C=CC6[C@@H](C4)N(C)CC[C@@]563)ccc2c1 (stereo partly shown) [Inventive compound (16)] | 0.0583 ± 0.01 | 7.6 ± 0.5
